According to patent US20200131156A1, “ARYLSULFONYLPYROLECARBOXAMIDE DERIVATIVES AS Kv3 POTASSIUM CHANNEL ACTIVATORS” (H. Lundbeck A/S, priority 2018, published 2020):

Biological target: T1, hKv3.1b (Homo sapiens, UniProt P48547)
T1 construct: expressed in transfected cells
T1 sequence (P48547 1-585 isoform P48547-2): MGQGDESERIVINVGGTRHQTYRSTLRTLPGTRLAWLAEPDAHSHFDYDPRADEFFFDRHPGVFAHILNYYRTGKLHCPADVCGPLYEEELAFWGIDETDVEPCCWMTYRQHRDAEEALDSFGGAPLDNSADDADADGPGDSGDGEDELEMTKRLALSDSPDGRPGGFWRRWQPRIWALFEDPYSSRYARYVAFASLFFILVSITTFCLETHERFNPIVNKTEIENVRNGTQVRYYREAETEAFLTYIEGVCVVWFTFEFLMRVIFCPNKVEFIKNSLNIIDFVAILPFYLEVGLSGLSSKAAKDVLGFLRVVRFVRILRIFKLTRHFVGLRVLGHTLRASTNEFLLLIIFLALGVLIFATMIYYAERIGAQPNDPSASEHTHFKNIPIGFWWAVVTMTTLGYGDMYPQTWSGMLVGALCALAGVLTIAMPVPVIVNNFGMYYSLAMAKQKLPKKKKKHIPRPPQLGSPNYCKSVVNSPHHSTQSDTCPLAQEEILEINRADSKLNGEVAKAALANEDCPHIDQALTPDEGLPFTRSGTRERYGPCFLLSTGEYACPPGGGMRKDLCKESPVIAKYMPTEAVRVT
Experiment: Automated patch clamp (QPatch-16x) on HEK-293 cells stably expressing hKv3.1b
Format: cell-based
Settings: for ECdelta5 mV: concentration needed to shift the activation threshold 5 mV; for Threshold Shift: maximum absolute hyperpolarizing shift of activation threshold at tested concentrations 0.37-30 μM
Procedure, shortened: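 Whole-cell automated patch clamp, extracellular pH 7.4, 4 mM Na2ATP intracellular; holding −80 mV, 200 ms steps −70 to +10 mV. Five ascending concentrations (0.37–30 μM) per cell, ~3 min each, 0.33% DMSO vehicle. Activation threshold (5% of vehicle peak at 10 mV) shift fitted sigmoidally; ECdelta5 mV read from curve.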

Compound	ECdelta5 mV [nM]	Threshold Shift [mV]
Cc1cccc(S(=O)(=O)n2ccc(C(=O)NCc3nc(C)no3)c2)c1 [Compound 61, 1-(3-methylbenzene-1-sulfonyl)-N-[(3-methyl-1,2,4-oxadiazol-5-yl)methyl]-1H-pyrrole-3-carboxamide]	5900	12
Cc1cc(CNC(=O)c2ccn(S(=O)(=O)c3ccccc3C)c2)on1 [Compound 78, 1-(2-methylbenzene-1-sulfonyl)-N-[(3-methyl-1,2-oxazol-5-yl)methyl]-1H-pyrrole-3-carboxamide]	1900	17
COc1ccnc(CNC(=O)c2ccn(S(=O)(=O)c3ccc(C)cc3)c2)c1 [Compound 19, N-[(4-methoxy-2-pyridyl)methyl]-1-(p-tolylsulfonyl) pyrrole-3-carboxamide]	2100	11
COc1ccc(S(=O)(=O)n2ccc(C(=O)NCc3cc(C)no3)c2)cc1 [Compound 71, 1-(4-methoxybenzene-1-sulfonyl)-N-[(3-methyl-1,2-oxazol-5-yl)methyl]-1H-pyrrole-3-carboxamide]	1800	19
Cc1ccc(S(=O)(=O)n2ccc(C(=O)NCc3cc(F)ccn3)c2)cc1 [Compound 12, N-[(4-fluoro-2-pyridyl)methyl]-1-(p-tolylsulfonyl) pyrrole-3-carboxamide]	1700	16
Cc1ccc(S(=O)(=O)n2ccc(C(=O)NCc3cnc(C)nc3)c2)cc1 [Compound 2, N-[(2-methylpyrimidin-5-yl)methyl]-1-(p-tolylsulfonyl)pyrrole-3-carboxamide]	750	40
Cn1ccc(CNC(=O)c2ccn(S(=O)(=O)c3ccccc3)c2)n1 [Compound 82, 1-(benzenesulfonyl)-N-[(1-methyl-1H-pyrazol-3-yl)methyl]-1H-pyrrole-3-carboxamide]	4100	14
Cc1ccc(CNC(=O)c2ccn(S(=O)(=O)c3ccc(F)cc3)c2)cn1 [Compound 85, 1-(4-fluorobenzene-1-sulfonyl)-N-[(6-methylpyridin-3-yl)methyl]-1H-pyrrole-3-carboxamide]	3100	18
Cc1ccc(S(=O)(=O)n2ccc(C(=O)NCc3nccs3)c2)cc1 [Compound 51, 1-(4-methylbenzene-1-sulfonyl)-N-[(1,3-thiazol-2-yl)methyl]-1H-pyrrole-3-carboxamide]	2400	14
Cc1ccc(S(=O)(=O)n2ccc(C(=O)NCc3ccc(F)cn3)c2)cc1 [Compound 13, N-[(5-fluoro-2-pyridyl)methyl]-1-(p-tolylsulfonyl) pyrrole-3-carboxamide]	1700	13
Cc1ccc(S(=O)(=O)n2ccc(C(=O)NCc3cnc4nccn4c3)c2)cc1 [Compound 24, N-(imidazo[1,2-a]pyrimidin-6-ylmethyl)-1-(p-tolylsulfonyl)pyrrole-3-carboxamide]	3200	24
Cc1ccc(S(=O)(=O)n2ccc(C(=O)NCc3nnc(C)o3)c2)cc1 [Compound 31, N-[(5-methyl-1,3,4-oxadiazol-2-yl)methyl]-1-(p-tolylsulfonyl)pyrrole-3-carboxamide]	9600	13
Cc1ccc(S(=O)(=O)n2ccc(C(=O)NCc3cccnc3)c2)cc1 [Compound 14, 1-(p-tolylsulfonyl)-N-(3-pyridylmethyl) pyrrole-3-carboxamide]	1500	23
Cc1ccc(S(=O)(=O)n2ccc(C(=O)NCc3cnn(C)c3)c2)cc1 [Compound 37, N-[(1-methylpyrazol-4-yl)methyl]-1-(p-tolylsulfonyl) pyrrole-3-carboxamide]	1800	22
Cc1ccc(S(=O)(=O)n2ccc(C(=O)NCc3cnco3)c2)cc1 [Compound 50, 1-(4-methylbenzene-1-sulfonyl)-N-[(1,3-oxazol-5-yl)methyl]-1H-pyrrole-3-carboxamide]	3300	13
Cn1ccc(CNC(=O)c2ccn(S(=O)(=O)c3ccc(F)cc3)c2)n1 [Compound 63, 1-(4-fluorobenzene-1-sulfonyl)-N-[(1-methyl-1H-pyrazol-3-yl)methyl]-1H-pyrrole-3-carboxamide]	2200	13
Cc1ccc(S(=O)(=O)n2ccc(C(=O)NCc3coc(C)n3)c2)cc1 [Compound 47, 1-(4-methylbenzene-1-sulfonyl)-N-[(2-methyl-1,3-oxazol-4-yl)methyl]-1H-pyrrole-3-carboxamide]	2300	12
Cc1ccc(S(=O)(=O)n2ccc(C(=O)NCc3nc(C)cs3)c2)cc1 [Compound 34, N-[(4-methylthiazol-2-yl)methyl]-1-(p-tolylsulfonyl)pyrrole-3-carboxamide]	1100	18
Cc1ccc(S(=O)(=O)n2ccc(C(=O)NCc3cc(C)n[nH]3)c2)cc1 [Compound 116, 1-(4-methylbenzene-1-sulfonyl)-N-[(3-methyl-1H-pyrazol-5-yl)methyl]-1H-pyrrole-3-carboxamide]	2600	25
Cc1ccc(S(=O)(=O)n2ccc(C(=O)NCc3cc(C)on3)c2)cc1 [Compound 32, N-[(5-methylisoxazol-3-yl)methyl]-1-(p-tolylsulfonyl) pyrrole-3-carboxamide]	1300	16
Cc1ccc(S(=O)(=O)n2ccc(C(=O)NCc3nc(C)no3)c2)cc1 [Compound 43, N-[(3-methyl-1,2,4-oxadiazol-5-yl)methyl]-1-(p-tolylsulfonyl)pyrrole-3-carboxamide]	1700	23
Cc1ccc(S(=O)(=O)n2ccc(C(=O)NCc3cnc(C)cn3)c2)cc1 [Compound 25, N-[(5-methylpyrazin-2-yl)methyl]-1-(p-tolylsulfonyl) pyrrole-3-carboxamide]	1100	37
COc1ccc(S(=O)(=O)n2ccc(C(=O)NCc3cnc(C)cn3)c2)c(C)c1 [Compound 98, 1-(4-methoxy-2-methyl-phenyl)sulfonyl-N-[(5-methylpyrazin-2-yl)methyl]pyrrole-3-carboxamide]	710	36
Cc1ccc(S(=O)(=O)n2ccc(C(=O)NCc3ncccc3F)c2)cc1 [Compound 11, N-[(3-fluoro-2-pyridyl)methyl]-1-(p-tolylsulfonyl) pyrrole-3-carboxamide]	1300	16
Cc1ccc(S(=O)(=O)n2ccc(C(=O)NCc3ccno3)c2)cc1 [Compound 53, 1-(4-methylbenzene-1-sulfonyl)-N-[(1,2-oxazol-5-yl)methyl]-1H-pyrrole-3-carboxamide]	2300	15
Cc1ccc(CNC(=O)c2ccn(S(=O)(=O)c3ccccc3C)c2)nc1 [Compound 77, 1-(2-methylbenzene-1-sulfonyl)-N-[(5-methylpyridin-2-yl)methyl]-1H-pyrrole-3-carboxamide]	3300	12
